What all share (assay type): cell-based
For one series, the system named is HIV-1(IIIB). Kind of series: Inhibition of HIV-1 induced syncytium formation in CEM cells, wild type. The conditions noted are these: Human immunodeficiency virus 1, IIIB, CCRF-CEM, 96 h, Table 2B, WT = HIV-1(IIIB), day 4, averages of 2 to 3 independent experiments, read-out: Antiviral Activity of Comparative Compounds EC50, WT. From the text:
(§1) CEM cells were obtained from the American Tissue Cell Culture Collection (Rockville, Md.). HIV-1(IIIB) was originally obtained from the culture supernatant of persistently HIV-1-infected H9 cells and was provided by R. C. Gallo and M. Popovic (National Cancer Institute, National Institutes of Health, Bethesda, Md.). […] 67: 5353-5359 (1993); HIV-1/Lys-138 ("Lys-138") was selected for resistance against TSAO-m^3T as described in Balzarini et al, Virology 192: 246-253 (1993) and Balzarini et al, Proc. Nat. Acad. Sci. USA 90: 6952-6956 (1993); HIV-1/181-Cys ("181-Cys") was selected for resistance against pyridinone L-697,661 as described in Balzarini et al, Virology 192: 246-253 (1993); and HIV-1/188-His ("188-His") was selected for resistance against HEPT as described in Balzarini et al, Mol. Pharmocol. 44: 694-701 (1993). 188-His was then further converted to HIV-1/188-Leu "188-Leu") upon further passage in cell culture in the absence of the HEPT.
(§2) CEM cells were suspended at ≈300,000 cells per ml of culture medium and infected with approximately 100 CCID50 (CCID50 being the 50% cell culture infective dose) of HIV-1(IIIB) or one of the HIV-1 RT mutant strains described above. Then 100 μl of the infected cell suspensions was added to 200 μl microtiter plate wells containing 100 μl of appropriate serial (5-fold) dilutions of the test compounds. The inhibitory effect of the test compounds on HIV-1 induced syncytium formation in CEM cells was examined microscopically on day 4 post infection.

Another series has as its system HIV-1/100-Ile. Kind of series: Inhibition of HIV-1 induced syncytium formation in CEM cells, RT mutant 100-Ile. The conditions noted are these: Human immunodeficiency virus 1, CCRF-CEM, 96 h.
Source text: as §1, §2

For a further series, the system named is HIV-1/106-Ala. Kind of series: Inhibition of HIV-1 induced syncytium formation in CEM cells, RT mutant 106-Ala. The following applies: Human immunodeficiency virus 1, CCRF-CEM, 96 h.
Source text: as §1, §2

For a further series, the system named is HIV-1/Lys-138. Kind of series: Inhibition of HIV-1 induced syncytium formation in CEM cells, RT mutant 138-Lys. The following applies: Human immunodeficiency virus 1, CCRF-CEM, 96 h.
Source text: as §1, §2

The next series deals with HIV-1/181-Cys. Kind of series: Inhibition of HIV-1 induced syncytium formation in CEM cells, RT mutant 181-Cys. The conditions noted are these: Human immunodeficiency virus 1, CCRF-CEM, 96 h.
Source text: as §1, §2

The next series can be described thus: in vitro. The following applies: human, cem cells, CC50 (50% cytostatic concentration), Table 2B; CEM cell proliferation; averages of 2 to 3 independent experiments.
Source text: as §1
^b 50% cytostatic concentration (i.e., compound concentration require
to inhibit CEM cell proliferation by 50%)

Where [1] appears, read: Table 2B, day 4, averages of 2 to 3 independent experiments, read-out: Antiviral Activity of Comparative Compounds EC50, 100-Ile.
Where [2] appears, read: Table 2B, day 4, averages of 2 to 3 independent experiments, read-out: Antiviral Activity of Comparative Compounds EC50, 106-Ala.
Setting [3] is: Table 2B, day 4, averages of 2 to 3 independent experiments, read-out: Antiviral Activity of Comparative Compounds EC50, 138-Lys.
The mark [4] stands for this setting: Table 2B, day 4, averages of 2 to 3 independent experiments, read-out: Antiviral Activity of Comparative Compounds EC50, 181-Cys.

Structures are written as SMILES. ≈ marks a conversion by molar mass, not a printed value. Where two headings read alike, the source gives them in different places.

Turning to `Cc1ccsc1C(=S)Nc1ccc(Cl)c(C(=O)OC(C)C)c1` [Compound 88], the EC50 – broadly, the concentration giving half of the maximal effect – with HIV-1(IIIB) amounted to 0.01 µg/mL (≈ 0.0283 µM); with HIV-1/100-Ile (setting [1]), 0.7 µg/mL (≈ 1.98 µM); in the series with HIV-1/106-Ala (setting [2]), 0.6 µg/mL (≈ 1.7 µM); in the series on HIV-1/Lys-138 (setting [3]), 0.3 µg/mL (≈ 0.848 µM); with HIV-1/181-Cys (setting [4]), 0.27 µg/mL (≈ 0.763 µM). In the series “in vitro”, the CC50 – broadly, the concentration at which the toxic effect on the cells reaches its halfway point – came to 5.2 µg/mL (≈ 14.7 µM).

`CC(C)OC(=O)c1cc(NC(=S)c2cccs2)ccc1Cl` [Compound 89]: the concentration for a half-maximal effect (EC50) turned out to be 0.09 µg/mL (≈ 0.265 µM) with HIV-1(IIIB); 3 µg/mL (≈ 8.83 µM) with HIV-1/100-Ile (setting [1]); 4 µg/mL (≈ 11.8 µM) in the series with HIV-1/106-Ala (setting [2]); 1.9 µg/mL (≈ 5.59 µM) in the series on HIV-1/Lys-138 (setting [3]); 4 µg/mL (≈ 11.8 µM) in the series with HIV-1/181-Cys (setting [4]). Also, it took 4.9 µg/mL (≈ 14.4 µM) to reach half-maximal cytotoxicity in “in vitro” (CC50).

`COc1ccccc1C(=S)Nc1ccc(Cl)c(C(=O)OC(C)C)c1` [Compound 90]: the EC50 in the series on HIV-1(IIIB) is 0.19 µg/mL (≈ 0.522 µM); with HIV-1/100-Ile (setting [1]) it was 3.5 µg/mL (≈ 9.62 µM); in the series on HIV-1/106-Ala (setting [2]) it was 6 µg/mL (≈ 16.5 µM); with HIV-1/Lys-138 (setting [3]), 0.7 µg/mL (≈ 1.92 µM); with HIV-1/181-Cys (setting [4]), 5.5 µg/mL (≈ 15.1 µM). The compound also showed a CC50 in the series “in vitro” of 27 µg/mL (≈ 74.2 µM).

On to `Cc1ccccc1C(=S)Nc1ccc(Cl)c(C(=O)OC(C)C)c1` [Compound 91], for which the EC50 with HIV-1(IIIB) came out at 0.45 µg/mL (≈ 1.29 µM); in the series with HIV-1/100-Ile (setting [1]), 4.5 µg/mL (≈ 12.9 µM); in the series with HIV-1/106-Ala (setting [2]) it was 8.5 µg/mL (≈ 24.4 µM); with HIV-1/Lys-138 (setting [3]), 5 µg/mL (≈ 14.4 µM); in the series with HIV-1/181-Cys (setting [4]), 7.5 µg/mL (≈ 21.6 µM). For the same compound, in the series “in vitro”, the CC50 was 5.8 µg/mL (≈ 16.7 µM).

For the compound `CC(C)OC(=O)c1cc(NC(=S)c2ccsc2)ccc1Cl` [Compound 92], the EC50 amounted to 0.02 µg/mL (≈ 0.0588 µM) in the series on HIV-1(IIIB); 0.4 µg/mL (≈ 1.18 µM) in the series on HIV-1/100-Ile (setting [1]); 0.75 µg/mL (≈ 2.21 µM) with HIV-1/106-Ala (setting [2]); 0.5 µg/mL (≈ 1.47 µM) in the series on HIV-1/Lys-138 (setting [3]); 0.37 µg/mL (≈ 1.09 µM) with HIV-1/181-Cys (setting [4]). In the series “in vitro”, this compound had a CC50 of 4.3 µg/mL (≈ 12.7 µM).

Regarding `CC(C)(C)ON=Cc1cc(NC(=S)c2ccccc2)ccc1Cl` [Compound 93], the EC50 in the series on HIV-1(IIIB) stood at 0.03 µg/mL (≈ 0.0865 µM); in the series with HIV-1/100-Ile (setting [1]), 2 µg/mL (≈ 5.77 µM); with HIV-1/106-Ala (setting [2]) it was 0.1 µg/mL (≈ 0.288 µM); with HIV-1/Lys-138 (setting [3]), 0.08 µg/mL (≈ 0.231 µM); with HIV-1/181-Cys (setting [4]), 0.7 µg/mL (≈ 2.02 µM). This compound yielded a CC50 in the series “in vitro” of 9.7 µg/mL (≈ 28 µM).

As to `Cc1ccoc1C(=S)Nc1ccc(Cl)c(C=NOC(C)C)c1` [Compound 94], the EC50 in the series on HIV-1(IIIB) was 0.01 µg/mL (≈ 0.0297 µM); in the series on HIV-1/100-Ile (setting [1]), 0.75 µg/mL (≈ 2.23 µM); with HIV-1/106-Ala (setting [2]), 0.5 µg/mL (≈ 1.48 µM); in the series on HIV-1/Lys-138 (setting [3]), 0.15 µg/mL (≈ 0.445 µM); with HIV-1/181-Cys (setting [4]), 0.6 µg/mL (≈ 1.78 µM). The same compound gave a CC50 in the series “in vitro” of 3.1 µg/mL (≈ 9.2 µM).

Take `Cc1ccsc1C(=S)Nc1ccc(Cl)c(C=NOC(C)C)c1` [Compound 95]: the EC50 in the series on HIV-1(IIIB) turned out to be 0.008 µg/mL (≈ 0.0227 µM); with HIV-1/100-Ile (setting [1]), 0.65 µg/mL (≈ 1.84 µM); with HIV-1/106-Ala (setting [2]), 0.08 µg/mL (≈ 0.227 µM); in the series with HIV-1/Lys-138 (setting [3]) it was 0.16 µg/mL (≈ 0.453 µM); with HIV-1/181-Cys (setting [4]) it was 0.5 µg/mL (≈ 1.42 µM). Besides, in “in vitro”, the CC50 was 13 µg/mL (≈ 36.8 µM).

Take `CC(C)ON=Cc1cc(NC(=S)c2ccccc2)ccc1Cl` [Compound 96]: the EC50 was 0.05 µg/mL (≈ 0.15 µM) in the series on HIV-1(IIIB); more than 1 µg/mL in the series with HIV-1/100-Ile (setting [1]); 0.75 µg/mL (≈ 2.25 µM) in the series with HIV-1/106-Ala (setting [2]); 0.17 µg/mL (≈ 0.511 µM) with HIV-1/Lys-138 (setting [3]); more than 1 µg/mL with HIV-1/181-Cys (setting [4]). In “in vitro”, this compound came in with a CC50 of 9 µg/mL (≈ 27 µM).

For `Cc1occc1C(=S)Nc1ccc(Cl)c(C=NOC(C)C)c1` [Compound 97], the EC50 in the series with HIV-1(IIIB) was 0.009 µg/mL (≈ 0.0267 µM); in the series with HIV-1/100-Ile (setting [1]) it was 3.5 µg/mL (≈ 10.4 µM); in the series with HIV-1/106-Ala (setting [2]), not below 4 µg/mL; in the series on HIV-1/Lys-138 (setting [3]) it was 2 µg/mL (≈ 5.94 µM); in the series with HIV-1/181-Cys (setting [4]) it was 3.3 µg/mL (≈ 9.8 µM). The same compound showed a CC50 in the series “in vitro” of 3.3 µg/mL (≈ 9.8 µM).

Consider `CC(C)C(OC(=O)c1cc(NC(=S)c2ccccc2F)ccc1Cl)C(C)C` [Compound 98], for which the EC50 in the series on HIV-1(IIIB) is 0.06 µg/mL (≈ 0.147 µM); in the series with HIV-1/100-Ile (setting [1]) it was more than 1 µg/mL; in the series with HIV-1/106-Ala (setting [2]) it was 0.85 µg/mL (≈ 2.08 µM); with HIV-1/Lys-138 (setting [3]), 0.7 µg/mL (≈ 1.72 µM); in the series on HIV-1/181-Cys (setting [4]) it was more than 1 µg/mL. Moreover, the CC50 in “in vitro” was 7.5 µg/mL (≈ 18.4 µM).

For `CC(C)C(OC(=O)c1cc(NC(=S)c2ccc[nH]2)ccc1Cl)C(C)C` [Compound 99], the EC50 in the series with HIV-1(IIIB) is 0.1 µg/mL (≈ 0.264 µM); in the series with HIV-1/100-Ile (read-out: Antiviral Activity of Comparative Compounds EC50, 100-Ile, Table 2B, day 4, averages of 2 to 3 independent experiments), more than 1 µg/mL; in the series on HIV-1/106-Ala (read-out: Antiviral Activity of Comparative Compounds EC50, 106-Ala, Table 2B, day 4, averages of 2 to 3 independent experiments), more than 10 µg/mL; in the series with HIV-1/Lys-138 (read-out: Antiviral Activity of Comparative Compounds EC50, 138-Lys, Table 2B, day 4, averages of 2 to 3 independent experiments), more than 10 µg/mL; with HIV-1/181-Cys (read-out: Antiviral Activity of Comparative Compounds EC50, 181-Cys, Table 2B, day 4, averages of 2 to 3 independent experiments) it was more than 10 µg/mL. Moreover, the CC50 in the series “in vitro” was more than 100 µg/mL.

For the origin of these results see patent publication US5696151A, “Compounds useful for the inhibition of the replication of HIV-1 and HIV-1 mutants” (priority 1995, dated 1997).
